Experimental findings from US5183736A, “Methods using estrogen receptor as a constitutive transcriptional activator and a repressor” (La Jolla Cancer Research Foundation, priority 1990, dated 1993) are described below.

“Also recorded” adds a separate entry of the source.

One series has as its system ER-TRα hybrid receptor. Kind of series: ERE-CAT activation by hybrid receptor ER-TRα alone in CV-1 cells. It is filed as cell-based, human. The note with it: 10^-7 M T3, FIG. 5. How it is done:
(§1) A representative experiment is shown.
(§2) The transient transfection was performed as follows. […] After 24 h cultures were washed with PBS and new medium was added. A modified calcium phosphate precipitation procedure was used for transient transfection^20. 18 h after transfections, cultures were washed twice with PBS, and fresh medium was added together with the desired amount of hormone. After 24 h. cells were collected and cell extract was prepared. β-gal assay was performed as described^21. CAT activity was assayed by using ^3 H-acetylated chloramphenicol and a mixed-phase scintillation measurement, as described in reference 22, below. CPM corrected for β-gal activity represents relative CAT activity. ERE-CAT was constructed by inserting the above synthetic ERE-oligonucleotide with BglII linkers into the BamH1 site of pBLCAT2^23.

Series [1] deals with ERval. Kind of series: gel retardation assay, ERval binding to 32P-labelled ERE. Also noted: species or system human. The note with it: for effect on binding of ERval to the ERE: high concentrations, FIG. 2b. How it is done: (§3) (a) DNA binding of ER and ER mutants. […] As control, the labelled ERE (lane 1) and the lysate (lane 2) were run alone. Binding of receptors to labelled ERE was competed with 50 fold excess of unlabelled ERE(S) or nonspecific unlabelled oligonucleotides (N).
(§4) To investigate the ER protein-DNA interaction gel retardation assays were performed^5,13. Receptor proteins were synthesized by in vitro transcription/translation^5,7, incubated with ^32 P-labelled ERE, and run on a non-denaturing acrylamide gel (FIG. 2a). The assay was performed as follows. ER and ERval cDNA cloned in Bluescript (Stratagene) were transcribed using T7 or T3 RNA polymerase, and translated, using rabbit reticulocyte translation system (Promega) as described^5. 5 μl of in vitro translated receptor protein were incubated with ^32 P labeled ERE fragment in a reaction mixture containing 20 mM Hepes buffer pH 7.9, 50 mM KCl, 1 mM DTT, 2.5 mM MgCl2, 10% glycerol, and 1 μg poly (dI-dC) at 25° C. for 20 min. Reaction mixtures were loaded on a 5% non-denaturing polyacrylamide gel containing 10 mM HEPES pH 7.9 and 3.3 mM sodium acetate pH 7.9, and electrophoresed. Gels were run at 4° C., 140 V for 3 h with continued circulation of buffer.

In the next series the test system is ERdel. Conditions: 10^-8 M E2, FIG. 2a. As for the experimental part: as §3, §4
Series [2] relates to TRα-ERval hybrid receptor. Conditions: 10^-8 M E2, FIG. 4c. As for the experimental part:
as §4

Series [3] addresses human estrogen receptor (ER, wild type, GLY at position 400) (Homo sapiens, UniProt P03372). As for the experimental part: (§5) (a) Induction of CAT activity. CV-1 cells were transiently cotransfected with 2 μg of ERE-CAT reporter plasmid alone (control) or together with 1 μg of receptor expression vector and 3 μg of β-gal expression vector (pCH110, Pharmacia) which served as an internal control. Carrier DNA (Bluescript) was added to 23 μg total DNA. […] CAT activity is corrected for β-gal activity.
CV-1 cells were cotransfected with 2 μg ERE reporter plasmid alone (control) and with decreasing amounts of ER expression vector as indicated. […] A representative experiment is shown.
(§6) CV-1 cells were cotransfected as described under (a) using ER (c) or ERval (d) expression vectors and reporter plasmid.
(§7) CV-1 cells were transiently cotransfected with ER or ERval expression vectors and reporter plasmid as described in FIG. 1. […] CAT enzyme activities presented are corrected for transfection efficiency by measuring β-gal expression.
CV-1 cells were cotransfected as described above. […] CAT activities were measured as described.
To investigate the transcriptional regulatory properties of the human estrogen receptor, transient cotransfection experiments were carried out in which CV-1 cells were transfected with an estrogen receptor (ER) expression vector and an estrogen responsive CAT (chloramphenicol acetyl-transferase) reporter gene. We investigated the "wild type" receptor^9 that carries a GLY at position 400 (ER) and a mutant receptor that contains a VAL at position 400 (ERval). This mutant receptor was cloned from a human mammary carcinoma cell line cDNA library and was originally thought to represent the wild type hER^10,11. In addition we investigated another mutant receptor that we obtained by deleting the coding sequences for amino acids 442-498 (ERdel) of the hormone binding domain. The estrogen response element (ERE) we use here is a palindromic sequence ([…]) that is derived from the vitellogenin gene promoter^12.
as §2

A further series addresses ER (Homo sapiens, UniProt P03372). Conditions: 10^-8 M OH-Tam, 10^-7 M T3, FIG. 5. How it is done:
as §1, §2

For a further series, the system named is ER-ERE complex. Description: dissociation of the ER-ERE complex (gel retardation). It is filed as binding, human. The note with it: 10^-8 M ligand, 50 fold excess unlabelled ERE, 10° C., FIG. 6. As for the experimental part: At time 0, a 50 fold excess of non-labelled ERE was added. After incubation at 10° C. for the indicated time intervals, aliquots were loaded on a running non-denaturing 5% polyacrylamide gel.
The assay was performed as follows.
To measure the stability of the ER-ERE complexes in the presence and absence of ligands, the dissociation of the complexes was analyzed (FIG. 6).

The subject of series [4] is ERval. Kind of series: repressor assay: ERval cotransfected with ER-TRα and ERE-CAT in CV-1 cells. In kind it is cell-based, human. The note with it: 10^-8 M OH-Tam, 10^-7 M T3, FIG. 5. How it is done: CAT activities were measured as described in the Example. A representative experiment is shown.
The transient transfection was performed as follows.

Series [5] has as its system mutant estrogen receptor ERval (VAL at position 400). Description: transient cotransfection ERE-CAT reporter assay in CV-1 cells, ERval. In kind it is cell-based, human. As for the experimental part: as §5, §6, §7
To investigate the transcriptional regulatory properties of the human estrogen receptor, transient cotransfection experiments were carried out in which CV-1 cells were transfected with an estrogen receptor (ER) expression vector and an estrogen responsive CAT (chloramphenicol acetyl-transferase) reporter gene. We investigated the "wild type" receptor^9 that carries a GLY at position 400 (ER) and a mutant receptor that contains a VAL at position 400 (ERval). This mutant receptor was cloned from a human mammary carcinoma cell line cDNA library and was originally thought to represent the wild type hER^10,11. […]

For series [6], the target named is ERval (estrogen receptor Val400) (Homo sapiens, UniProt P03372 P03372:1-595, G400V). Kind of series: EMSA; with E2. Conditions: tags: rabbit reticulocyte lysate; chain copies: 2; label: 32P. (Mobility shift assays separate free from complexed probe on a gel.)
Sequence of ERval (estrogen receptor Val400) (P03372 whole entry G400V, one chain of several): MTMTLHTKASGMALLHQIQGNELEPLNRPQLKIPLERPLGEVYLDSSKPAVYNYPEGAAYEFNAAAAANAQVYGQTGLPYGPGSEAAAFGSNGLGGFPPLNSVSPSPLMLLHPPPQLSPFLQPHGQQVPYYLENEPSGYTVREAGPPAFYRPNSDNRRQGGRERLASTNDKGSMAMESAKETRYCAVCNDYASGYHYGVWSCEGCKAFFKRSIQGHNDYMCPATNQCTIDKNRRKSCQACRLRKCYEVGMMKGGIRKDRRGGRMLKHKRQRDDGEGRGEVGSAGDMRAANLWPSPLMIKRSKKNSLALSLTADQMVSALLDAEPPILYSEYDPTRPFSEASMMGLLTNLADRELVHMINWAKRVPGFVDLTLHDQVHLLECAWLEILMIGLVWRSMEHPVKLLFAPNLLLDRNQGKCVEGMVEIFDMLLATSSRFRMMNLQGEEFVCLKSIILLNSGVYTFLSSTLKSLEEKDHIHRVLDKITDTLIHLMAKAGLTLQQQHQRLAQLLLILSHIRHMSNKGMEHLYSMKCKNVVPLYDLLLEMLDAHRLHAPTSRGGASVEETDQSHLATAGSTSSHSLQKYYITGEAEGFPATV
Series [7] deals with estrogen receptor alpha (ER, wild type, Gly400) (Homo sapiens, UniProt P03372 P03372:1-595). Kind of series: EMSA; strong with and without E2 or Tam; 20 mM Hepes pH 7.9, 50 mM KCl, 2.5 mM MgCl2, poly(dI-dC), 25 C; dissociation not substantially changed by E2 or OH-Tam (FIG.). The note with it: tags: rabbit reticulocyte lysate; chain copies: 2; label: 32P.
Sequence of estrogen receptor alpha (ER, wild type, Gly400) (P03372 whole entry, one chain of several): as the sequence (P03372 whole entry G400V, one chain of several) above, with V400G counted along it

Sequence of human estrogen receptor (ER, wild type, GLY at position 400) (P03372 whole entry): as the sequence (P03372 whole entry G400V, one chain of several) above, with V400G counted along it
Sequence of ER (P03372 whole entry): as the sequence (P03372 whole entry G400V, one chain of several) above, with V400G counted along it

`N[C@@H](Cc1cc(I)c(Oc2ccc(O)c(I)c2)c(I)c1)C(=O)O` [T3]: in the series on ER-TRα hybrid receptor, the “ERE-CAT gene expression by ER-TRα alone” value is “efficiently enhances”.
Consider `CC/C(=C(\c1ccccc1)c1ccc(OCCN(C)C)cc1)c1ccccc1` [Tam, tamoxifen], for which the “effect on binding of ERval to the ERE” value in the series with ERval [1] was “drastically increase”.
Consider `C[C@]12CC[C@@H]3c4ccc(O)cc4CC[C@H]3[C@@H]1CC[C@@H]2O` [E2, estradiol], for which, in the series on ERdel, the “binding of ERdel to DNA with and without E2” value is “binds poorly to DNA in the presence and absence of E2”. Also, in series [2], the “increase of affinity of TRα-ERval for DNA (TRE)” value was “several fold”. Also, in the series on ERval [1] (10^-8 M E2, FIG. 2a), the “binding of ERval to ERE with E2” value is “binds strongly to ERE when E2 is included”.
4-hydroxytamoxifen [OH-Tam]: in series [3], the “OH-Tam concentration sufficient to repress E2 action on ER” value was “nanomolar concentrations”, the “concentration dependence of the agonist effect on ER” value is given as “does not increase with increasing concentrations of ligand”, the “effect on ER basal level activity” value was “do not significantly repress” and the “effect on basal level activity of ER at very low receptor concentrations” value is “increases the basal level activity”. Moreover, the “effect on transcriptional enhancing activity of ER” value in [3] is on record as “maintained at the constitutive basal level”. The “effect on repression capacity of ER towards ER-TRα” value on ER is “slightly increases”. In addition, the “effect on binding of ERval to the ERE” value with ERval [1] is reported as “drastically increase”. The “effect on dissociation of the ER-DNA complex” value in the series with ER-ERE complex is “no substantial difference”. The “repression of ER-TRα activity by ERval” value in the series on ERval [4] is “restores the ability of ERval to repress; also recorded: only an efficient repressor of ER-TRα in the presence of OH-Tam”. For the same molecule, in series [5] (OH-Tam 10^-8 M, no E2, FIG. 3a), the “effect on activation capacity of ERval” value was “restores the basal gene activation capacity; also recorded: increased by OH-Tam (10^-8 M) to the basal level of ER wild type”. Further, the “effect on ERval activation capacity in the presence of E2” value in [5] (OH-Tam with E2 10^-8 M, FIG. 3a) is given as “reduced to the wild type basal level”.

B1: ERE palindrome (dsDNA)
DNA 1: TCAGGTCACTGTGACCTGA
DNA 2: TCAGGTCACAGTGACCTGA
For the molecule B1, the binding result in series [6] and in series [7] was “binds” throughout.
